Assays:
H1299-EGFRmt cell model [1] = test: 2D-VM networks inhibition assay via high-content imaging, H1299-EGFRmt; assay type: cell-based; settings: any concentration beyond 31.25 nM
Procedure: (§1) Cells to be tested were plated in 96-well plates (manufactured by Greiner) and allowed to adhere overnight under standard culture conditions. Following attachment, the cells to be tested were exposed to various concentrations of anti-VM compound foslinanib (ABEx BIO-Research Center). The treatment's efficacy, specifically its ability to inhibit VM vasculature, was monitored time-dependent. The assessment of 2D-VM network disruption was conducted using the ImageXpressR Micro Confocal High-Content Imaging System (Molecular Devices LLC). This advanced imaging technology facilitates high-resolution visualization of cell morphology and tubular networks. Analysis of the imaging data was performed using MetaXpress software, allowing for quantitative measurement of 2D-VM network inhibition. This methodological approach provides a robust framework for evaluating the potential of anti-VM compounds.

H1299-EGFRwt cell model [2] = test: 3D-VM vasculature disruption, H1299-EGFRwt cell model; assay type: cell-based; settings: foslinanib 62.5 nM
Procedure: (§2) The assessment of in vitro vasculogenic mimicry (VM) capabilities of cancer cells was conducted utilizing the Matrigel tube formation assay. Chamber slides (TruLive3D Dishes, Burker) were prepared by applying a 100 μl layer of growth factor-reduced Matrigel (Corning) and subsequently allowing for gel solidification over a 30-minute period at 37° C. […] This preparation was then incubated for an additional 30 minutes at 37° C. within a CO2 incubator. […]
(§3) The quantification of tube or lumen formation of 3D-VM vasculature was conducted utilizing an analytical approach on at least eight distinct areas of interest (AOIs), among which three AOIs were specified as representative sections of images. […] First, the AOI was identified and quantified. Following this, the mean ROI was calculated by aggregating the ROIs for all eight AOIs (area 1+ area 2+ . . . area 8) and dividing this sum by eight, thereby deriving an average area that reflects the typical dimensions of the regions analyzed in each individual lung cancer cell model. […]
(§4) The entire quantification process was facilitated by employing the Angiogenesis Analyzer for ImageJ.

[3] = tested on: H1650 lung cancer cell model; test: 3D-VM vasculature disruption, H1650 lung cancer cell model (real-time LSFM, lumen quantification); assay type: cell-based
Procedure: The assessment of in vitro vasculogenic mimicry (VM) capabilities of cancer cells was conducted utilizing the Matrigel tube formation assay. Chamber slides (TruLive3D Dishes, Burker) were prepared by applying a 100 μl layer of growth factor-reduced Matrigel (Corning) and subsequently allowing for gel solidification over a 30-minute period at 37° C. Following solidification, a cell suspension prepared in culture media at a concentration of 1.25×10^5 cells per 150 μl was evenly distributed over the gel surface. This preparation was then incubated for an additional 30 minutes at 37° C. within a CO2 incubator. After this initial incubation period, an overlay of 1× Matrigel mixed with culture medium was applied directly to the cells, so as to obtain a pre-cell model (10), and followed by further incubation at 37° C. for 5 to 24 hours so that a lung cancer cell model (100) was obtained for subsequent 3D-VM observation.
The quantification of tube or lumen formation of 3D-VM vasculature was conducted utilizing an analytical approach on at least eight distinct areas of interest (AOIs), among which three AOIs were specified as representative sections of images. The region of interest (ROI) indicates a delineated patent tube or hollow lumen within each tested cell. First, the AOI was identified and quantified. Following this, the mean ROI was calculated by aggregating the ROIs for all eight AOIs (area 1+ area 2+ . . . area 8) and dividing this sum by eight, thereby deriving an average area that reflects the typical dimensions of the regions analyzed in each individual lung cancer cell model. Finally, the standard average was ascertained by dividing the mean ROI by the mean total tube average. This ratio provides a standardized metric, enabling the effective comparison of anti-3D-VM vasculature efficiency across varying experimental setups or among different cell lines; the formula is as follows: […]
as §4

[4] = Cell viability (MTT assay), HCC827; assay type: cell-based; settings: human, HCC827 cells; HCC827, 62.5 nM
Procedure: (§5) Cell viability was determined using an MTT assay.

H1299 cell model [5] = test: Cell viability, H1299 cell model; assay type: cell-based; settings: H1299, high concentration (beyond 250 nM)
Procedure: as §5

H1299-EGFRmt cell model [6] = test: Cell viability, H1299-EGFRmt cell model; assay type: cell-based
Procedure: as §5

[7] = tested on: various tumor xenograft models; settings: cited from earlier work
H1650 cells = test: Cell viability (MTT assay), H1650; assay type: cell-based; settings: H1650 lung cancer cell model, various foslinanib concentrations
Procedure: as §5

LAMC2 = test: Western blot, LAMC2 in H1299, H1299-EGFRwt and H1299-EGFRmt cell models; assay type: cell-based; settings: across the examined cell lines
Procedure: (§7) Cells were seeded at a density of 2×10^6 cells in a 6 cm culture dish for protein sample preparation. […] After centrifugation, the cell lysate samples were boiled with 6X sample buffer for 10 minutes. The cell lysate protein samples were separated by SDS-PAGE and transferred to polyvinylidene difluoride (PVDF) membranes (Millipore). The membranes were then blocked with 5% skim milk (HIMEDIA) dissolved in Tris-buffered saline Tween (TBST) buffer for 1 hour, followed by three 10-minute washes with TBST. […] Subsequently, the membranes were incubated with the appropriate secondary antibodies for 1 hour at room temperature. Protein expressions were visualized using Western Lightning Plus ECL (PerkinElmer), detected by the iBright FL1000 imaging system, and analyzed using ImageJ software.

H1299-EGFRwt cell model [8] = test: 2D-VM networks inhibition assay via high-content imaging, H1299-EGFRwt; assay type: cell-based; settings: high concentration (beyond 31.25 nM)
Procedure: as §1

H1299-EGFRmt cell model [9] = test: 3D-VM vasculature disruption, H1299-EGFRmt cell model; assay type: cell-based
Procedure: (§6) The assessment of in vitro vasculogenic mimicry (VM) capabilities of cancer cells was conducted utilizing the Matrigel tube formation assay. Chamber slides (TruLive3D Dishes, Burker) were prepared by applying a 100 μl layer of growth factor-reduced Matrigel (Corning) and subsequently allowing for gel solidification over a 30-minute period at 37° C. Following solidification, a cell suspension prepared in culture media at a concentration of 1.25×10^5 cells per 150 μl was evenly distributed over the gel surface. This preparation was then incubated for an additional 30 minutes at 37° C. within a CO2 incubator. […]
as §3, §4

[10] = tested on: HCC827 lung cancer cell model; test: 3D-VM vasculature disruption, HCC827 lung cancer cell model (real-time LSFM, lumen quantification); assay type: cell-based; settings: HCC827, 500 nM, 24-hour incubation
Procedure: as §6, §3, §4

H1299 cell model [11] = test: 2D-VM networks inhibition assay via high-content imaging, H1299; assay type: cell-based; settings: H1299, compared with H1299-EGFRmt cell model
Procedure: as §1

phosphorylated EGFR = settings: Western blot, H1299, H1299-EGFRwt, H1299-EGFRmt cell models
Procedure: as §7

[12] = tested on: H1299-EGFRwt and H1299-EGFRmt cell models; test: 3D-VM vasculature under single use of osimertinib (cell model not given); assay type: cell-based
Procedure: as §2, §3, §4

H1299-EGFRwt cell model [13] = settings: osimertinib
Procedure: Cell viability was determined using an MTT assay. Cells were plated at a density of 4×10^3 cells/well within 96-well plates. These cells were then exposed to various concentrations of anti-vasculogenic mimicry (anti-VM) compounds across different time points: 0, 24, 48, and 72 hours. Following the treatment period, the MTT reagent (sourced from Sigma) was added to each well, and the cells were incubated at 37° C. for 2 hours. Subsequently, the plates were centrifuged at 1500 rpm for 10 minutes to facilitate the removal of the supernatant. The resultant formazan crystals were dissolved using dimethyl sulfoxide (DMSO), and the absorbance of the solution, indicative of cell viability, was measured at a wavelength of 492 nm using an ELISA plate reader.

## COc1ccc2[nH]c(-c3cccc(F)c3)cc(=O)c2c1OP(=O)(O)O [foslinanib]
H1299-EGFRmt cell model [1]
  2D total network area: decreasing trend
  2D total network length: decreasing trend
H1299-EGFRwt cell model [2]
  effect on 3D-VM vasculature: disruptive effect
[3]; H1650, 62.5 nM
  disruption of VM lumens: disruption of VM lumens
[3]; H1650, 250 nM and 500 nM
  inhibition of 3D-VM vasculature: significant inhibition
  lumen area: significantly reduced
[4]
  viability at 0.0625 µM: 70%
H1299 cell model [5]
  cell viability: suppressed
H1299-EGFRmt cell model [6]; H1299-EGFRmt, 31.25 nM (range 7.8125 nM to 500 nM)
  cell viability: significant decrease
[7]
  anti-tumor efficacy: robust anti-tumor efficacy
H1650 cells
  cell toxicity against H1650 cells: no significant cell toxicity
LAMC2
  LAMC2 protein levels: significant decrease
H1299-EGFRwt cell model [8]
  inhibitory effect on the formation of a 2D-VM network: rather insignificant
H1299-EGFRmt cell model [9]
  disruption of 3D-VM vasculature (quantitative analysis): significant
[10]
  lumen area: significant reduction
H1299 cell model [11]
  2D total network area: less effective inhibition
  2D total network length: less effective inhibition

## C=CC(=O)Nc1cc(Nc2nccc(-c3cn(C)c4ccccc34)n2)c(OC)cc1N(C)CCN(C)C [osimertinib]
Phosphorylated EGFR
  levels of phosphorylated EGFR: markedly reduced
[12]; after osimertinib treatment
  3D-VM vasculature (quantitative analysis): significantly disrupted
[12]; osimertinib
  formation of 3D-VM vasculature (3D imaging): did not impact
H1299-EGFRmt cell model [6]; H1299mt cell model, osimertinib
  cytotoxic effects: cytotoxic effects
H1299-EGFRwt cell model [13]
  cytotoxic effects: cytotoxic effects

— patent US20250066737A1, “METHOD FOR ESTABLISHING LUNG CANCER CELL MODEL HAVING VASCULAR TUBES, PLATFORM FOR LUNG CANCER MEDICINE SCREENING AND METHOD FOR USING THEREOF” (National Cheng Kung University Hospital, priority 2023, published 2025)
